Laboratory results reported in US11477982B2, “2-amino-5-oxyalkyl-pyrimidine derivatives and their use for controlling undesired plant growth” (Bayer CropScience Aktiengesellschaft, priority 2017, dated 2022).

Columns and labels:
Type in all cases: in vivo
[1] = tested on: SETVI: Setaria viridis; experiment: Post-emergence herbicidal effect; details: dosage 320 g/ha
Protocol: (§1) 2. Post-Emergence Herbicidal Effect and Crop Plant Compatibility
(§2) Seeds of monocotyledonous and dicotyledonous weeds and crop plants are placed in sandy loam in plastic or wood-fiber pots, covered with soil and cultivated in a greenhouse under controlled growth conditions, 2 to 3 weeks after sowing, the test plants are treated at the one-leaf stage. The compounds of the invention, formulated in the form of wettable powders (WP) or as emulsion concentrates (EC), are then sprayed onto the green parts of the plants as aqueous suspension or emulsion with addition of 0.5% additive at a water application rate of 600 l/ha (converted). After the test plants had been kept in the greenhouse under optimum growth conditions for about 3 weeks, the activity of the preparations is rated visually in comparison to untreated controls. For example, 100% activity=the plants have died, 0% activity=like control plants.

[2] = tested on: VIOTR: Viola tricolor; experiment: Post-emergence herbicidal effect; details: dosage 320 g/ha
Protocol: as §1, §2

[3] = tested on: STEME: Stellaria media; experiment: Post-emergence herbicidal effect; details: dosage 320 g/ha
Protocol: as §1, §2

[4] = tested on: ECHCG: Echinochloa crus-galli; experiment: Post-emergence herbicidal effect; details: dosage 320 g/ha
Protocol: as §1, §2

[5] = tested on: VERPE: Veronica persica; experiment: Post-emergence herbicidal effect; details: dosage 320 g/ha
Protocol: as §1, §2

[6] = tested on: AMARE: Amaranthus retroflexus; experiment: Post-emergence herbicidal effect; details: dosage 320 g/ha
Protocol: as §1, §2

[7] = tested on: ABUTH: Abutilon theophrasti; experiment: Post-emergence herbicidal effect; details: dosage 320 g/ha
Protocol: as §1, §2

[8] = tested on: SETVI: Setaria viridis; experiment: Pre-emergence herbicidal effect; details: for Herbicidal action against SETVI: dosage 320 g/ha
Description: (§3) 1. Pre-Emergence Herbicidal Effect and Crop Plant Compatibility
(§4) Seeds of monocotyledonous and dicotyledonous weed plants and crop plants are placed in plastic or wood fiber pots and covered with soil. The compounds of the invention, formulated in the form of wettable powders (WP) or as emulsion concentrates (EC), are then applied onto the surface of the covering soil as aqueous suspension or emulsion with addition of 0.5% additive at a water application rate of 600 l/ha (converted).
(§5) After the treatment, the pots are placed in a greenhouse and kept under good growth conditions for the trial plants. After about 3 weeks, the effect of the preparations is scored visually in comparison with untreated controls as percentages. For example, 100% activity=the plants have died, 0% activity=like control plants.

[9] = tested on: VIOTR: Viola tricolor; experiment: Pre-emergence herbicidal effect; details: dosage 320 g/ha
Description: as §3, §4, §5

[10] = tested on: STEME: Stellaria media; experiment: Pre-emergence herbicidal effect; details: for Herbicidal action against STEME: pre-emergence, dosage 320 g/ha
Description: as §3, §4, §5

[11] = tested on: HORMU: Hordeum murinum; experiment: Pre-emergence herbicidal effect; details: for Herbicidal action against HORMU: pre-emergence, dosage 320 g/ha
Description: as §3, §4, §5

[12] = tested on: LOLRI: Lolium rigidum; experiment: Pre-emergence herbicidal effect; details: for Herbicidal action against LOLRI: dosage 320 g/ha
Description: as §3, §4, §5

[13] = tested on: ECHCG: Echinochloa crus-galli; experiment: Pre-emergence herbicidal effect; details: for Herbicidal action against ECHCG: dosage 320 g/ha
Description: as §3, §4, §5

[14] = tested on: AVEFA: Avena fatua; experiment: Pre-emergence herbicidal effect; details: dosage 320 g/ha
Description: as §3, §4, §5

[15] = tested on: VERPE: Veronica persica; experiment: Pre-emergence herbicidal effect; details: dosage 320 g/ha
Description: as §3, §4, §5

[16] = tested on: MATIN: Matricaria inodora; experiment: Pre-emergence herbicidal effect; details: for Herbicidal action against MATIN: pre-emergence, dosage 320 g/ha
Description: as §3, §4, §5

[17] = tested on: AMARE: Amaranthus retroflexus; experiment: Pre-emergence herbicidal effect; details: for Herbicidal action against AMARE: pre-emergence, dosage 320 g/ha
Description: as §3, §4, §5

[18] = tested on: ABUTH: Abutilon theophrasti; experiment: Pre-emergence herbicidal effect; details: for Herbicidal action against ABUTH: dosage 320 g/ha
Description: as §3, §4, §5

[19] = tested on: PHBPU: Ipomoea purpurea; experiment: Pre-emergence herbicidal effect; details: for Herbicidal action against PHBPU: dosage 320 g/ha
Description: as §3, §4, §5

[20] = tested on: POLCO: Polygonum convolvulus; experiment: Pre-emergence herbicidal effect; details: for Herbicidal action against POLCO: dosage 320 g/ha
Description: as §3, §4, §5

[21] = tested on: ALOMY: Alopecurus myosuroides; experiment: Pre-emergence herbicidal effect; details: for Herbicidal action against ALOMY: dosage 320 g/ha
Description: as §3, §4, §5

[22] = Table 4a, pre-emergence, dosage 20 g of a.i./ha
[23] = Table 4b, pre-emergence as titled, dosage 80 g of a.i./ha
[24] = Table 4a, dosage 20 g of a.i./ha

Structure (SMILES): CCC(O)(CC)c1cnc(N[C@H]2c3cc(C)ccc3C[C@@H]2C)nc1 [Example 1.10]
- Herbicidal action against SETVI [1]: 80%
- Herbicidal action against VIOTR [2]: 90%
- Herbicidal action against STEME [3]: 100%
- Herbicidal action against ECHCG [4]: 100%
- Herbicidal action against VERPE [5]: 90%
- Herbicidal action against AMARE [6]: 90%
- Herbicidal action against ABUTH [7]: 90%
- Herbicidal action against SETVI ([8]; pre-emergence): 100%
- Herbicidal action against VIOTR [9]: 100%
- Herbicidal action against STEME [10]: 100%
- Herbicidal action against HORMU [11]: 100%
- Herbicidal action against LOLRI [12]: 100%
- Herbicidal action against ECHCG ([13]; pre-emergence): 100%
- Herbicidal action against AVEFA [14]: 100%
- Herbicidal action against VERPE [15]: 100%
- Herbicidal action against MATIN [16]: 100%
- Herbicidal action against AMARE [17]: 100%
- Herbicidal action against ABUTH [18]: 100%
- Herbicidal action against PHBPU [19]: 80%
- Herbicidal action against POLCO [20]: 100%
- Herbicidal action against ALOMY ([21]; pre-emergence): 100%

Structure (SMILES): CC1Cc2ccccc2C1Nc1ncc(C(C)(C)O)cn1 (mixture of isomers) [Example 1.55]
- Herbicidal action against SETVI [1]: 100%
- Herbicidal action against VIOTR [2]: 90%
- Herbicidal action against STEME [3]: 90%
- Herbicidal action against ECHCG [4]: 100%
- Herbicidal action against VERPE [5]: 90%
- Herbicidal action against AMARE [6]: 90%
- Herbicidal action against ABUTH [7]: 90%
- Herbicidal action against SETVI ([8]; pre-emergence): 100%
- Herbicidal action against VIOTR [9]: 100%
- Herbicidal action against STEME [10]: 100%
- Herbicidal action against HORMU [11]: 100%
- Herbicidal action against LOLRI [12]: 100%
- Herbicidal action against ECHCG ([13]; pre-emergence): 100%
- Herbicidal action against AVEFA [14]: 100%
- Herbicidal action against VERPE [15]: 100%
- Herbicidal action against MATIN [16]: 100%
- Herbicidal action against AMARE [17]: 100%
- Herbicidal action against ABUTH [18]: 100%
- Herbicidal action against PHBPU [19]: 90%
- Herbicidal action against POLCO [20]: 100%
- Herbicidal action against ALOMY ([21]; pre-emergence): 90%

Structure (SMILES): Cc1ccc2c(c1)[C@H](Nc1ncc(C(C)O)c(C)n1)CCC2 (some centres unmarked) [Example 1.48]
- Herbicidal action against SETVI [1]: 90%
- Herbicidal action against VIOTR [2]: 80%
- Herbicidal action against STEME [3]: 90%
- Herbicidal action against ECHCG [4]: 100%
- Herbicidal action against VERPE [5]: 90%
- Herbicidal action against AMARE [6]: 90%
- Herbicidal action against ABUTH [7]: 80%
- Herbicidal efficacy against SETVI [8, 22]: 100
- Herbicidal efficacy against SETVI [8, 23]: 70
- Herbicidal action against SETVI ([8]; pre-emergence): 100%
- Herbicidal action against VIOTR [9]: 100%
- Herbicidal efficacy against STEME [10, 23]: 80
- Herbicidal action against STEME [10]: 100%
- Herbicidal efficacy against HORMU [11, 23]: 20
- Herbicidal action against HORMU [11]: 100%
- Herbicidal efficacy against LOLRI [12, 24]: 90
- Herbicidal action against LOLRI [12]: 100%
- Herbicidal efficacy against ECHCG [13, 22]: 80
- Herbicidal efficacy against ECHCG [13, 23]: 90
- Herbicidal action against ECHCG ([13]; pre-emergence): 100%
- Herbicidal action against AVEFA [14]: 90%
- Herbicidal action against VERPE [15]: 100%
- Herbicidal efficacy against MATIN [16, 23]: 70
- Herbicidal action against MATIN [16]: 100%
- Herbicidal efficacy against AMARE [17, 23]: 80
- Herbicidal action against AMARE [17]: 100%
- Herbicidal efficacy against ABUTH [18, 24]: 90
- Herbicidal action against ABUTH [18]: 100%
- Herbicidal efficacy against PHBPU [19, 24]: 70
- Herbicidal action against PHBPU [19]: 90%
- Herbicidal efficacy against POLCO [20, 24]: 100
- Herbicidal action against POLCO [20]: 100%
- Herbicidal efficacy against ALOMY [21, 22]: 70
- Herbicidal efficacy against ALOMY [21, 23]: 50
- Herbicidal action against ALOMY ([21]; pre-emergence): 100%
